The values that follow come from US20130236473A1, “THERAPEUTIC AGENTS AND PROPHYLACTIC AGENTS FOR SYMPTOMS ACCOMPANYING AUTOIMMUNE DISEASES, INFLAMMATORY DISEASES, ALLERGY DISEASES AND ORGAN TRANSPLANTS” (OSAKA UNIVERSITY, priority 2010, published 2013).

SMILES strings stand for the structures.

This test concerns IL-6 amplifier. Kind of test: Example 2: PI3 kinase inhibitors, mIL-6 protein production on IL-6 amplifier activation in BC-1 cells (ELISA). It counts as cell-based. The conditions noted are these: 24 hours, conditions (a) to (d), 0 or 100 ng/ml mouse epiregulin, LY294002 0.1-10, PIK75 0.01-1.0 micromole/L. As to the method: 2×10^5 mouse BC-1 cells were cultured in an RPMI 1640 medium for 24 hours under each of the following conditions: • (a) in the presence of 10% FBS, • (b) with the addition of 50 ng/ml of hIL-6 protein and 50 ng/ml of hIL-6R protein (hereinafter referred to as “hIL-6/6R proteins”) and in the presence of 10% FBS, • (c) with the addition of 50 ng/ml of mIL-17A protein and in the presence of 10% FBS, • (d) with the addition of hIL-6/6R proteins at 50 ng/ml and mIL-17A protein at 50 ng/ml and in the presence of 10% FBS, • (e) in the absence of FBS, • (f) with the addition of hIL-6/6R proteins each at 50 ng/ml and in the absence of FBS, • (g) with the addition of 50 ng/ml of mIL-17A protein and in the absence of FBS, or • (h) with the addition of hIL-6/6R proteins each at 50 ng/ml and mIL-17A protein at 50 ng/ml and in the absence of FBS. […]
After the culture, the production amount of mouse IL-6 protein under each condition was quantified by an ELISA method. […]
In general terms: An ELISA detects its analyte on a solid surface through an enzyme-linked reagent.

With `O=c1cc(N2CCOCC2)oc2c(-c3ccccc3)cccc12` [LY294002, 2-(4-Morpholinyl)-8-phenyl-4H-1-benzopyran-4-one], the “increase in the expression amount of mIL-6 protein due to the activation of IL-6 amplifier” value is on record as “can be suppressed”.
